Reference: PubChem BioAssay (NCI)
Several values for one entry are separate records, joined by “and”; a condition that tells them apart may be missing. Equal entries are not always repeated.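 Where inhibition never reached the appropriate level, the endpoint shown equals the highest concentration tested. Otherwise, values were interpolated linearly from a five-concentration, 48-hour dose response in 96-well plates. GI50: concentration for 50% inhibition of growth. TGI is the concentration that stops growth completely.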 Where a SMILES comes first, the peptide text is derived from it. [ ]: non-standard residue; d: D form. Phe(F5) = N[CH](Cc1c(F)c(F)c(F)c(F)c1F)C(=O)O

Assays:
Experiment in all cases: inhibition of tumour cell growth, NCI panel, 48 h
EKVX NSCLC = system: EKVX NSCLC
HCT-116 colon = system: HCT-116 colon
HOP-62 NSCLC = system: HOP-62 NSCLC
K-562 leukemia = system: K-562 leukemia
U251 CNS = system: U251 CNS
HS 578T breast = system: HS 578T breast
MDA-MB-435 = system: MDA-MB-435
NCI/ADR-RES ovarian = system: NCI/ADR-RES ovarian
OVCAR-5 ovarian = system: OVCAR-5 ovarian
HOP-92 NSCLC = system: HOP-92 NSCLC

SMILES | TGI (EKVX NSCLC) | TGI (HCT-116 colon) | TGI (HOP-62 NSCLC) | TGI (K-562 leukemia) | TGI (U251 CNS) | GI50 (EKVX NSCLC) [µM] | GI50 (HCT-116 colon) [µM] | GI50 (HOP-62 NSCLC) [µM] | TGI (HS 578T breast) [µM] | GI50 (K-562 leukemia) [µM] | TGI (MDA-MB-435) | TGI (NCI/ADR-RES ovarian) [µM] | TGI (OVCAR-5 ovarian) [µM] | GI50 (U251 CNS) | GI50 (HOP-92 NSCLC) [µM] | TGI (HOP-92 NSCLC) | GI50 (HS 578T breast) [µM] | GI50 (MDA-MB-435) | GI50 (OVCAR-5 ovarian) [µM] | GI50 (NCI/ADR-RES ovarian) [µM]
CCOP(=O)(OCC)C1CCCCOC1=O (stereo unspecified) | > 100 µM | > 100 µM | > 100 µM | > 100 µM | > 100 µM |  |  |  |  |  |  |  |  |  |  |  |  |  |  | 
COC(=O)C(CC(C)C)NC(=O)C(Cc1cnc[nH]1)NC(=O)CNC(=O)C(NC(=O)C(C)NC(=O)C(Cc1c[nH]c2ccccc12)NC(=O)C(CCC(=O)O)NC(=O)C(N)Cc1c(F)c(F)c(F)c(F)c1F)C(C)C (stereo unspecified) (H-[Phe(F5)]EWAVGHL-OMe; configuration not given here) | > 100 µM | > 100 µM | > 100 µM | > 100 µM | > 100 µM | > 100 | > 100 | > 100 | > 12.5 | > 100 | > 12.5 µM | > 12.5 | > 12.5 | > 100 µM |  |  |  |  |  | 
Cc1ccc2[nH]c(C(=O)NN3C(=O)CSC34CCCCC4C)c(-c3ccccc3)c2c1 (stereo unspecified) | 33.8 µM | 34.2 µM | 33.9 µM | 42.1 µM | 32.7 µM | 17 | 14.5 | 18 | 96.2 | 10.8 | 34.7 µM |  | 36.1 | 16.8 µM | 12.7 | 27.3 µM | 27.8 | 17.9 µM | 19.7 | 
COc1cccc(OC(=O)c2ccccc2Nc2ccnc(C(F)(F)F)c2)c1 | > 100 µM | 3.07 µM | 6.73 µM | > 100 µM | 11 µM | 6.62 | 1.12 | 2.84 | > 100 | 0.739 |  |  | 35.6 | 2.86 µM | 5.77 | 60.4 µM | 4.85 |  | 3.53 | 
CN1CCc2c1nc(-c1ccccc1)c1c2N(C)CC1 | > 100 µM | > 100 µM | > 100 µM | > 100 µM | > 100 µM |  |  |  |  |  |  |  | > 100 |  |  | 91 µM |  |  |  | 
CN(C)c1ccc2nc3ccc(=[N+](C)C)cc-3oc2c1 | 6.76 µM | 12.1 µM | 50.5 µM | 71.9 µM | 4.8 µM | 0.636 | 0.892 | 3.58 | 64 | 1.58 | 15.8 µM | 97.9 |  | 0.725 µM |  |  | 15.8 | 2.73 µM |  | 12.1
NCC1(N2CCOCC2)C2CCCC21CO (stereo unspecified) |  | > 100 µM | > 100 µM | > 100 µM | > 100 µM |  |  |  |  |  |  |  | > 100 |  |  | > 100 µM |  |  |  | 
CCCN(Cc1ccc(F)cc1)c1ccc(CO)c(Cl)c1 |  | 3.86 µM | 17.1 µM | 15.2 µM | 16.2 µM |  | 0.138 | 2.4 | 37.6 | 2.22 | 29 µM | 22.9 | 0.528 | 2.48 µM | 2.66 | 14.2 µM | 14.8 | 14.6 µM | 0.168 | 9.52
O=C(CCn1[nH]c(=O)c(Cl)c(Cl)c1=O)NOCCCc1ccccc1 | > 100 µM | > 100 µM | > 100 µM | > 100 µM |  |  |  |  |  |  |  |  | > 100 |  |  | > 100 µM |  |  |  | 
CC(=O)[O][Pb]([O]C(C)=O)([c]1ccccc1)[c]1ccccc1 | > 100 µM | > 59.1 µM | 52 µM | > 100 µM | 10 µM | > 35 | 4.81 | 25.2 |  | > 25.9 |  |  | > 100 | 4.69 µM | 3.62 | > 100 µM |  |  | 25.9 | 
Cc1ccc(C(=O)Nc2ccc(S(=O)(=O)O)c3cc(S(=O)(=O)O)cc(S(=O)(=O)O)c23)cc1NC(=O)c1cccc(N)c1 | > 100 µM |  | > 100 µM | > 100 µM | > 100 µM |  |  |  | > 100 |  |  | > 100 | > 100 |  |  |  |  |  |  | 
Nc1ncnc2sc(=S)c3c(c12)CCC3 | 58.8 µM | > 100 µM | > 100 µM | > 100 µM | > 100 µM | 18.9 | 31.8 | 46.4 | 99.7 | 36.1 | > 100 µM | > 100 | > 100 | 45.8 µM |  |  | 34.5 | 46.9 µM | 42 | 30.1
COc1ccccc1[N-]C(C1=C([O-])c2ccccc2C1=O)c1ccccc1.COc1ccccc1[N-]C(C1=C([O-])c2ccccc2C1=O)c1ccccc1.[Cu+2] (stereo unspecified) |  | > 100 µM | 68.6 µM | > 100 µM | 8.33 µM |  | 3.26 | 25.2 |  | 3.18 |  |  |  | 2.88 µM | 9.86 | 69.7 µM |  |  |  | 
CCC[CH2][Sn]([CH2]CCC)([O]C(C)=O)[O]C(C)=O | 4.94 µM | 3.26 µM | 3.9 µM | 2.59 µM | 2.09 µM | 1.84 | 1.56 | 2.17 |  | 0.299 |  |  | 2.71 | 0.888 µM | 1.92 | 4.13 µM |  |  | 1.23 | 
CC1=C2CCCC2C/C(=N/Nc2ccc([N+](=O)[O-])cc2[N+](=O)[O-])CC1 (stereo unspecified) |  | > 100 µM | > 100 µM | > 100 µM | > 100 µM |  |  |  |  |  |  |  | > 100 |  |  | > 100 µM |  |  |  | 
CC1CC2C(=O)NC(=O)C2c2[nH]c3ccccc3c21 (stereo unspecified) | > 100 µM | > 100 µM | > 100 µM | > 100 µM | > 100 µM |  |  |  |  |  |  |  | > 100 |  |  | > 100 µM |  |  |  | 
CCc1ccc(NCc2cc(OC)c(OC)c(OC)c2)cc1 | > 96.1 µM and 84.3 µM | 10.2 µM and 27.4 µM | 52.4 µM and 35.5 µM | 26.4 µM and 52.4 µM | 22.2 µM and 11.9 µM |  |  |  | > 100 | 0.111 | 45.8 µM and 31.3 µM |  | > 76.1 | 0.411 µM and 0.167 µM | 5.24 | 22.2 µM and 74.6 µM |  | 0.0232 µM and 0.0172 µM | 4.09 | 
